Measurements from article PMC11790914, “Chemogenomics for steroid hormone receptors (NR3)” (Communications Chemistry, 2025).

Key:
NR1F3 (RORγ) = target: T1, NR1F3 (RORγ) (Homo sapiens, UniProt P51449); assay: Gal4 hybrid reporter gene assay RORγ; type: cell-based; conditions: 3 µM, n=3
T1 construct: expressed in transfected cells; host or cells: HEK293T
Description: (§1) Reference ligands are listed in the methods section.
(§2) HEK293T cells (ATCC, Manassas, Virgina, USA; #CRL-3216) were cultured to a maximal confluence of 70–80% in DMEM, high glucose, supplemented with 10% FCS, sodium pyruvate (1 mM), penicillin (100 U/mL), and streptomycin (100 μg/mL) at 37 °C and 5% CO2 (v/v), and seeded in clear 96-well plates (4 × 10^4 cells per well). After 20–24 h, medium was changed to Opti-MEM without supplements and the cells were transiently transfected using Lipofectamine™ LTX/Plus™ Reagents (Invitrogen, Carlsbad, California, USA; #15338100) according to the manufacturer’s protocol with pFR-Luc (reporter gene; Stratagene, Agilent Technologies, Santa Clara, California, USA; #219050), pRL-SV40 (control gene for normalization of transfection efficiency and cell growth; Promega, Fitchburg, Wisconsin, USA; #E2231) and one pFA-CMV-hNR-LBD clone coding for the hinge region and ligand binding domain (LBD) of the human NR of interest. […] Firefly (reporter) and renilla (control) luminescence were measured after 14–16 h incubation using the Dual-Glo® Luciferase Assay System (Promega, Fitchburg, Wisconsin, USA; #E2980) according to manufacturer’s protocol on a Tecan Spark® 10M multimode microplate reader (Tecan Group AG, Männedorf, Switzerland). To obtain relative light units (RLU) firefly luminescence was divided by renilla luminescence and multiplied by 1000. […]

NR3C1 (GR) = conditions: cited from earlier work
NR3C2 (MR) = conditions: rem. act.; cited from earlier work
NR3C3 (PR) = conditions: cited from earlier work; for IC50: (lit.), ref Supplementary Table 1, read-out: Potency [nM] IC50, NR3C3 (PR)
NR3C4 (AR) = conditions: cited from earlier work
NR1B1 (RARα) = target: T2, NR1B1 (RARα) (Homo sapiens, UniProt P10276); assay: Gal4 hybrid reporter gene assay RARα; type: cell-based; design: Activity on NR targets outside NR3 family [mean log10(fold reporter gene activity)] NR1B1 (RARα): concentration or dose not given beside the values
T2 construct: expressed in transfected cells; host or cells: HEK293T
Description: as §1
(§3) Five hours after transfection, the cells were incubated with the NR3 CG compound candidates at the recommended concentrations by changing the medium to Opti-MEM supplemented with penicillin (100 µ/mL) and streptomycin (100 µg/mL) additionally containing 0.1% DMSO and the respective test compound or 0.1% DMSO alone as untreated control. Firefly (reporter) and renilla (control) luminescence were measured after 14–16 h incubation using the Dual-Glo® Luciferase Assay System (Promega, Fitchburg, Wisconsin, USA; #E2980) according to manufacturer’s protocol on a Tecan Spark® 10M multimode microplate reader (Tecan Group AG, Männedorf, Switzerland). To obtain relative light units (RLU) firefly luminescence was divided by renilla luminescence and multiplied by 1000. Fold activation was obtained by dividing the mean RLU of a test sample by the mean RLU of the DMSO (0.1%) control. Experiments were performed in singlets in at least three biologically independent repeats.
(§4) Supplementary Figure 1. […] Compounds are labeled according
(§5) Supplementary Figure 2. […] Compounds are
(§6) representing the NR1, NR2, NR4 and NR5 families.
(§7) scanning fluorimetry (DSF).
(§8) a concentration of 20 µM.

NR1C3 (PPARγ) = target: T3, NR1C3 (PPARγ) (Homo sapiens, UniProt P37231); assay: Gal4 hybrid reporter gene assay PPARγ; type: cell-based; conditions: n=3
T3 construct: expressed in transfected cells; host or cells: HEK293T
Description: as §1, §2

NR2A2 (HNF4α) = target: T4, NR2A2 (HNF4α) (Homo sapiens, UniProt P41235); assay: Gal4 hybrid reporter gene assay HNF4α; type: cell-based; conditions: n=3
T4 construct: expressed in transfected cells; host or cells: HEK293T
Description: as §1, §2

NR2B1 (RXRα) = target: T5, NR2B1 (RXRα) (Homo sapiens, UniProt P19793); assay: Gal4 hybrid reporter gene assay RXRα; type: cell-based; conditions: n=3
T5 construct: expressed in transfected cells; host or cells: HEK293T
Description: as §1, §3, §4, §5, §6, §7, §8

NR3B2 (ERRβ) = conditions: ref Supplementary Table 1, cited from earlier work
NR3B3 (ERRγ) = conditions: (lit.); ref Supplementary Table 1; read-out: Potency [nM] EC50, NR3B3 (ERRγ); cited from earlier work
NR3A2 (ERβ) = conditions: (lit.); ref Supplementary Table 1; read-out: Potency [nM] IC50, NR3A2 (ERβ); cited from earlier work

T4 sequence (P41235 147-377 limits assumed): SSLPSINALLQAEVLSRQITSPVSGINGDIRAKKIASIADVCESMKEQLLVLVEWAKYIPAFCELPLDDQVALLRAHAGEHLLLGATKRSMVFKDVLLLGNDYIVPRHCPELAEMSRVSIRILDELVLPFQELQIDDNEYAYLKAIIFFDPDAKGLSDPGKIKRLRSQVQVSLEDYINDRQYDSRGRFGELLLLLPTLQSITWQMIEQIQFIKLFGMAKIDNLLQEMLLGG
T5 sequence (P19793 227-458 limits assumed): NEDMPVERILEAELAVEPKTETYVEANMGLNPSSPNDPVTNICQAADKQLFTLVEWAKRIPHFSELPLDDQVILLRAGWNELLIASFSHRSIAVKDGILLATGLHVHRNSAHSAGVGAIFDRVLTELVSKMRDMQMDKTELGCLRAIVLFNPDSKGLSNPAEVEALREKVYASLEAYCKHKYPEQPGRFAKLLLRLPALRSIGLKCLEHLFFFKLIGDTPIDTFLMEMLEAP
T1 sequence (P51449 269-508 limits assumed): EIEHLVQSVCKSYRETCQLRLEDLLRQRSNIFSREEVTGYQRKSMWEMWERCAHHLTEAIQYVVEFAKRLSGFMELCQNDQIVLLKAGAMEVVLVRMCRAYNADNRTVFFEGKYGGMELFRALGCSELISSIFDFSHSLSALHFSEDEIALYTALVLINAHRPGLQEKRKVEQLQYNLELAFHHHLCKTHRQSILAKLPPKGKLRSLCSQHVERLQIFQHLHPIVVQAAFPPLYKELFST
T2 sequence (P10276 183-417 limits assumed): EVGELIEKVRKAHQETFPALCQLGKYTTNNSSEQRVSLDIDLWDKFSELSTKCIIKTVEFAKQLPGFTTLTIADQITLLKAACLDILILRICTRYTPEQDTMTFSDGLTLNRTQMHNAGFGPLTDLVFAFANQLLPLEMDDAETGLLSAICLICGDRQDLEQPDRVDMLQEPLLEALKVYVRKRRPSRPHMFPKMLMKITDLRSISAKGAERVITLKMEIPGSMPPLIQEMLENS
T3 sequence (P37231 238-503 limits assumed): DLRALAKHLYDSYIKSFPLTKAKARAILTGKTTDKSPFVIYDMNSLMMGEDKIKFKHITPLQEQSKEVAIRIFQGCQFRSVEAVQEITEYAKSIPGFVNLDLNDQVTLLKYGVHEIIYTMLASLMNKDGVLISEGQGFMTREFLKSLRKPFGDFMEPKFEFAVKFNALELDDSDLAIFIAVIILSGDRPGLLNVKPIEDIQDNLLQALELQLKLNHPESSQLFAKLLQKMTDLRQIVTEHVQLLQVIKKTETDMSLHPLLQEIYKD

With CCCC1O[C@@H]2C[C@H]3[C@@H]4CCC5=CC(=O)C=C[C@]5(C)[C@H]4[C@@H](O)C[C@]3(C)[C@]2(C(=O)CO)O1 (some centres unmarked) [Budesonide] the “Activity on NR1F3 (RORγ)” value (NR1F3 (RORγ)) was -0.30 mean log10(fold reporter gene activity).
In the case of CC#C[C@]1(O)CC[C@H]2[C@@H]3CCC4=CC(=O)CCC4=C3[C@@H](c3ccc(N(C)C)cc3)C[C@@]21C [Mifepristone], the IC50 (NR3C1 (GR); (lit.), ref Supplementary Table 1, read-out: Potency [nM] IC50, NR3C1 (GR)) is listed as 0.8 ± 0.1 nM, the “rel. activity from literature, NR3C1 (GR): % rem. act. of DXM” value (NR3C1 (GR); rem. act. of DXM (dexamethasone)) is listed as 5 ± 1% and the “rel. activity from literature, NR3C2 (MR): % rem. act.” value (NR3C2 (MR)) is listed as 4%. The IC50 (NR3C3 (PR)) was […], the “rel. activity from literature, NR3C3 (PR): % rem. act. of PGN” value (NR3C3 (PR); rem. act. of PGN (progesterone)) was […] and the “rel. activity from literature, NR3C4 (AR): % rem. act. of DHT” value (NR3C4 (AR)) was 25 ± 2%. The IC50 (NR3C4 (AR); read-out: Potency [nM] IC50, NR3C4 (AR), (lit.), ref Supplementary Table 1) was 5 ± 2 nM.
With C[C@@H]1Cc2c([nH]c3ccccc23)[C@@H](c2c(F)cc(/C=C/C(=O)O)cc2F)N1CC(C)(C)F [AZD9496] the “Activity on NR targets outside NR3 family [mean log10(fold reporter gene activity)] NR1B1 (RARα)” value (NR1B1 (RARα)) was -0.43 log10(fold reporter gene activity).
With COc1ccc(-c2coc3cc(O)cc(O)c3c2=O)cc1 [Biochanin A] the “Activity on NR1C3 (PPARγ)” value (NR1C3 (PPARγ); 10 µM) was -0.56 mean log10(fold reporter gene activity), the “Activity on NR2A2 (HNF4α)” value (NR2A2 (HNF4α); 10 µM) was 0.38 mean log10(fold reporter gene activity) and the “Activity on NR2B1 (RXRα)” value (NR2B1 (RXRα); 10 µM) was -0.68 mean log10(fold reporter gene activity).
For CCN(CC)c1ccc(/C=N/NC(=O)c2ccc(O)cc2)cc1 [DY131], the “Activity on NR targets outside NR3 family [mean log10(fold reporter gene activity)] NR1F3 (RORγ)” value (NR1F3 (RORγ); vs. DMSO ctrl) is listed as 0.21 log10(fold reporter gene activity), the “Activity on NR targets outside NR3 family [mean log10(fold reporter gene activity)] NR2A2 (HNF4α)” value (NR2A2 (HNF4α); 3 µM, vs. DMSO ctrl) is listed as 0.29 log10(fold reporter gene activity) and the “rel. activity from literature, NR3B2 (ERRβ): fold activation” value (NR3B2 (ERRβ)) is listed as 2 fold. The EC50 (NR3B3 (ERRγ)) was 130 nM.
For C/C=C1\C(=O)C[C@H]2[C@@H]3CCC4=CC(=O)CC[C@]4(C)[C@H]3CC[C@]12C [Z-Guggulsterone], the IC50 (NR3C3 (PR)) is given as 740 ± 220 nM and the EC50 (NR3C4 (AR); read-out: Potency [nM] EC50, NR3C4 (AR), (lit.), ref Supplementary Table 1) is given as 660 ± 240 nM.
In the case of CC/C(=C(\c1ccc(O)cc1)c1ccc(OCCN(C)C)cc1)c1ccccc1 [(Z)-4-Hydroxytamoxifen], the IC50 (NR3A2 (ERβ)) is listed as 1 ± 1 nM and the IC50 (NR3B2 (ERRβ); (lit.), read-out: Potency [nM] IC50, NR3B2 (ERRβ)) is listed as 650 nM.
In the case of CC/C(=C(/c1ccc(/C=C/C(=O)O)cc1)c1ccc2[nH]ncc2c1)c1ccc(F)cc1Cl [ARN810], the “Activity on NR1B1 (RARα)” value (NR1B1 (RARα); 1 µM, n=3) is given as -0.97 mean log10(fold reporter gene activity), the “Activity on NR2B1 (RXRα)” value (NR2B1 (RXRα); 1 µM) is given as -0.29 mean log10(fold reporter gene activity) and the IC50 (NR3A2 (ERβ)) is given as 9 nM.
For Cc1ccc2c(NC[C@](O)(CC(C)(C)c3cc(F)cc4c3OCC4)C(F)(F)F)cccc2n1 [Mapracorat], the EC50 (NR3C1 (GR); (lit.), ref Supplementary Table 1, read-out: Potency [nM] EC50, NR3C1 (GR)) is given as 1.6 ± 0.3 nM and the “rel. activity from literature, NR3C1 (GR): % transrepression” value (NR3C1 (GR); transrepression) is given as 89 ± 4%.
For COc1cc(/C=C(\C#N)C(=O)Nc2nnc(C(F)(F)F)s2)ccc1OCc1ccc(C(F)(F)F)cc1C(F)(F)F [XCT790], the “Activity on NR targets outside NR3 family [mean log10(fold reporter gene activity)] NR1C3 (PPARγ)” value (NR1C3 (PPARγ); 1 µM, vs. DMSO ctrl) was 0.75 log10(fold reporter gene activity).
